# Assay results reported in ChEMBL document CHEMBL3301562, “MMV Box screening against Plasmodium falciparum protein kinases and aminoacyl tRNA synthetases”.
# Key:
# Format in all cases: functional
# Proline--tRNA ligase = target: T1, Proline--tRNA ligase (Plasmodium falciparum (isolate 3D7), UniProt Q8I5R7); assay: MMV: ProRS recombinant Plasmodium falciparum Prolyl-tRNA-synthetase, assay with yeast tRNA, ATP, and proline and 3 uM MMV malaria box compound, assay read out with kinase glo as % inhibition.
# T1 sequence (Q8I5R7 whole entry): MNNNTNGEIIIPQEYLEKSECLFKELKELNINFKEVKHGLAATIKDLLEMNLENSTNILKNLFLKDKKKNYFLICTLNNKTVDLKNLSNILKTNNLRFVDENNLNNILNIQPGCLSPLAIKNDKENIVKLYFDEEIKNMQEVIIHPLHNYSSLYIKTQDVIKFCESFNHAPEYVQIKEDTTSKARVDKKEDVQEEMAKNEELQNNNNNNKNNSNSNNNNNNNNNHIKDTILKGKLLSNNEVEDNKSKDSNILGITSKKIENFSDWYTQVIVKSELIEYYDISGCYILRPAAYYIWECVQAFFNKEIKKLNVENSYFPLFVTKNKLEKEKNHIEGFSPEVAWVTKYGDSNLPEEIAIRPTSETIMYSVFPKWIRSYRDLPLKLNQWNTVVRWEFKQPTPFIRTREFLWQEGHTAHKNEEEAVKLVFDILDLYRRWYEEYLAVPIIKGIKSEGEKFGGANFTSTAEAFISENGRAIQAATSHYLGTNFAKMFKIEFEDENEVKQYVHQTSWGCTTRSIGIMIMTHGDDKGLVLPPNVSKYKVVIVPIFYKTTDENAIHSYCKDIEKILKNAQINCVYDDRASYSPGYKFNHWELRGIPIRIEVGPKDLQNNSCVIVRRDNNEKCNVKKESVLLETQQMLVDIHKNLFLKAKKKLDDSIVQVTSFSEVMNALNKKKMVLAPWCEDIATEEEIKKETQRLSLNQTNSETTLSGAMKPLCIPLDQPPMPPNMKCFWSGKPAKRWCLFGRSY
# [1] = target: T2, Cdk-related protein kinase 6 (Plasmodium falciparum, UniProt O77239); assay: Final concentrations were 1.5 uM ATP, 5 mM MnCl2, and 15 ug/ml PK6 in a buffer of 100 mM Tris-HCl (pH 7.5). 50 ug/mL MBP was provided as the substrate; 10 uM staurosporine was used as a control inhibitor. Incubation time was 3 hours and 40 minutes.The catalytic activity of each kinase was considered proportional to ATP consumed, as determined from measurements of residual [ATP] with the luciferase-based reagent Kinase-Glo (Promega) following incubation. Luminescence (proportional to residual [ATP]) was measured on the plate readers FLx800 (BioTek Instruments, Winooski, VT, USA) and MicroBeta2.
# T2 sequence (O77239 whole entry): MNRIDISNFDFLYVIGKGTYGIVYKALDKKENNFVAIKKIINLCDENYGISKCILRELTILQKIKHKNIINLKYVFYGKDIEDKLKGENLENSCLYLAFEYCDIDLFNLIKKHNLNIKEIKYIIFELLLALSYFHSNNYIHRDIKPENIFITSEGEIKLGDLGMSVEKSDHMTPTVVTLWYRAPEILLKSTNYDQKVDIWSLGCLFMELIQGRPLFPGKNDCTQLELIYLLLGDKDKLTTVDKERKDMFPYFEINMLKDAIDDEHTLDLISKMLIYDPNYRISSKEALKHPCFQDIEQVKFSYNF
# [2] = target: T3, Mitogen-activated protein kinase (Plasmodium falciparum, UniProt Q25917); assay: Final concentrations were 1 uM ATP, 0.5 mM DTT, 1 mM MgCl2, 0.5 mg/mL BSA, and 10 ug/ml MAP2 in a buffer of 50 mM HEPES (pH 7.0). 0.5 mg/mL histone III-S served as the substrate (13); 100 uM AMP-PNP, an ATP analog, was used as a control inhibitor. Incubation time was 4 hours.
# T3 sequence (Q25917 whole entry): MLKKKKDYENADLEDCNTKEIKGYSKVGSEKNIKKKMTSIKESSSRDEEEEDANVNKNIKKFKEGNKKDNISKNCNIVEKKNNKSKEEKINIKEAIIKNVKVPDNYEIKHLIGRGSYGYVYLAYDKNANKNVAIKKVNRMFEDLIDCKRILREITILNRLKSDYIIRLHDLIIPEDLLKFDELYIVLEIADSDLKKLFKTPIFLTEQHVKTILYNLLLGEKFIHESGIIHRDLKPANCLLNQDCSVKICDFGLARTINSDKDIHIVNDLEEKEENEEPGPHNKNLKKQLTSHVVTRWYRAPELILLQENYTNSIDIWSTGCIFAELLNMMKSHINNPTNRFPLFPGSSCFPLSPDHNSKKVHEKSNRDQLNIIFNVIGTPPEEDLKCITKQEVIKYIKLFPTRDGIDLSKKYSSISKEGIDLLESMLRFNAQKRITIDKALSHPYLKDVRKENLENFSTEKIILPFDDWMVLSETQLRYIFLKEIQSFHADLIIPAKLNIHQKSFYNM
# [3] = target: T4, Putative uncharacterized protein pk7 (Plasmodium falciparum, UniProt O96214); assay: Final concentrations were 1 uM ATP, 2 mM DTT, 20 mM MgCl2, 2 mM MnCl2, 0.01% BSA, and 6 ug/ml PK7, in a buffer of 20 mM Tris-HCl (pH 7.5). The enzyme itself was the only substrate present (since autophosphorylation occurs); 100 uM 1NA-PP1 was used as a control inhibitor. Incubation time was 3 hours.
# T4 sequence (O96214 whole entry): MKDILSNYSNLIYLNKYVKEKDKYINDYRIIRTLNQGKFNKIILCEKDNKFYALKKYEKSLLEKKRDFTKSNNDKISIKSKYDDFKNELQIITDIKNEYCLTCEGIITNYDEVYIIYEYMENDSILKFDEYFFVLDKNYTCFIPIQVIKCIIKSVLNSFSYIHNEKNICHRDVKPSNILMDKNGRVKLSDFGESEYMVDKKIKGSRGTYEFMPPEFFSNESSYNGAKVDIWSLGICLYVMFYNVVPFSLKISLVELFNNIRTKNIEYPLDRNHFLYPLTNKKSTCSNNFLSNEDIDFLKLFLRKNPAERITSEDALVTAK
# [4] = target: Calcium-dependent protein kinase 1 (Plasmodium falciparum, UniProt P62344); assay: MMV: CDPK1 Protein kinase inhibition assay using recombinant PfCDPK1, syntide 2 peptide substrate, ATP and KinaseGlo to measure % inhibition at 1 uM MMV box compound.
# Calcium-dependent protein kinase 1, sequence (P62344 whole entry): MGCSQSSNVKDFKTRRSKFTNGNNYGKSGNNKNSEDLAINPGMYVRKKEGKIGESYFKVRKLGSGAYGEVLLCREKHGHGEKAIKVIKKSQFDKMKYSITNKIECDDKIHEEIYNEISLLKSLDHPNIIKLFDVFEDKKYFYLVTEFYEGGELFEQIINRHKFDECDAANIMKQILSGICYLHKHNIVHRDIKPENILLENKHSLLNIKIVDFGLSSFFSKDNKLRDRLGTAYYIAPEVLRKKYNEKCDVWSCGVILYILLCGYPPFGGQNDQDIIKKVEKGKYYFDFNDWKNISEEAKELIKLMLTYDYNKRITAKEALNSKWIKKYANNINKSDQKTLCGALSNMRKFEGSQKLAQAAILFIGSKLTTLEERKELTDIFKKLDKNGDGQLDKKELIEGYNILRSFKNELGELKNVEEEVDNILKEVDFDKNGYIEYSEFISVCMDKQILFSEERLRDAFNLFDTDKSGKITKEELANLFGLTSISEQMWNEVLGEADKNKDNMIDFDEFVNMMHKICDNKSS
# Lysine--tRNA ligase = Lysine--tRNA ligase (Plasmodium falciparum (isolate 3D7), UniProt Q8IDJ8); assay: MMV: KRS recombinant Plasmodium falciparum Lysyl-tRNA-synthetase, assay with yeast tRNA, ATP, and lysine and 3 uM MMV malaria box compound, assay read out with kinase glo as % inhibition.
# Lysine--tRNA ligase, sequence (Q8IDJ8 whole entry): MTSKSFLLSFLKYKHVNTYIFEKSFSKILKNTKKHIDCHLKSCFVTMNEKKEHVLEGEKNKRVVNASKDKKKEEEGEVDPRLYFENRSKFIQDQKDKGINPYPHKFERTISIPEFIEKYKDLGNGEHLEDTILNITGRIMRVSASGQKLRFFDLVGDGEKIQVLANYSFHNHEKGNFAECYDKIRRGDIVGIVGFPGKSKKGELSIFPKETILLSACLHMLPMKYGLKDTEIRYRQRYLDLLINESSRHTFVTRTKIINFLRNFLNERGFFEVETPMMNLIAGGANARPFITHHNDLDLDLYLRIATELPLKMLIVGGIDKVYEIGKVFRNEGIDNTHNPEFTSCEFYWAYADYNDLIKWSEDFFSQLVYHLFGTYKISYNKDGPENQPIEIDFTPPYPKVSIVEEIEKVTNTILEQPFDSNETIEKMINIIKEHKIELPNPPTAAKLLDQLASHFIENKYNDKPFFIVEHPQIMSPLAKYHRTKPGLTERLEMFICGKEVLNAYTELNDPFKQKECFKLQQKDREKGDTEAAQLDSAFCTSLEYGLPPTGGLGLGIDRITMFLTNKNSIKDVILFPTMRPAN
# [5] = target: T5, Calcium-dependent protein kinase 4 (Plasmodium falciparum (isolate 3D7), UniProt Q8IBS5); assay: MMV: CDPK4 Protein kinase inhibition assay using recombinant PfCDPK4, syntide2 peptide substrate, ATP and KinaseGlo to measure % inhibition at 1 uM MMV box compound.
# T5 sequence (Q8IBS5 whole entry): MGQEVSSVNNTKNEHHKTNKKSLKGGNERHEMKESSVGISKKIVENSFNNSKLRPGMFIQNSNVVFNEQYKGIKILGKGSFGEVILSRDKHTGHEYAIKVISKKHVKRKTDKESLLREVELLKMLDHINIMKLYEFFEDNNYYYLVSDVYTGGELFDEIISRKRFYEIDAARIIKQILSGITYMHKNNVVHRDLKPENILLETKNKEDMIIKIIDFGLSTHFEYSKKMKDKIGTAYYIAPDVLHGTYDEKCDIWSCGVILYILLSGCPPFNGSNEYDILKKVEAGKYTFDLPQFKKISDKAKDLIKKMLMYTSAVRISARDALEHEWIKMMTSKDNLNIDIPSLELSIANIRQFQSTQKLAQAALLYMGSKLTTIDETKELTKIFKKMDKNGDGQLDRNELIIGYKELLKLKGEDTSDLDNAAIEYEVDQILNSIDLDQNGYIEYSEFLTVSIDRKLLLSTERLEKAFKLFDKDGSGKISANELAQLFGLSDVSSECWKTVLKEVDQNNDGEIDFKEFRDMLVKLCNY
smiles,measurement,setting,value
COc1cccc(NC(=O)[C@H](C(C)C)n2c(=O)[nH]c3ccccc3c2=O)c1,IC50,Proline--tRNA ligase,> 2.5 µM
same,IC50,[1],> 1 µM
same,IC50,[2],> 1 µM
same,IC50,[3],> 1 µM
same,IC50,[4],> 1 µM
same,IC50,Lysine--tRNA ligase,> 2.5 µM
same,IC50,[5],> 1 µM
O=C(Nc1cccc(C2=NCCN2)c1)Nc1cccc(C2=NCCN2)c1 [IMIDOCARB],IC50,Proline--tRNA ligase,> 2.5 µM
same,IC50,[1],> 1 µM
same,IC50,[2],> 1 µM
same,IC50,[3],> 1 µM
same,IC50,[4],> 1 µM
same,IC50,Lysine--tRNA ligase,> 2.5 µM
same,IC50,[5],> 1 µM
COc1ccc(CNC(=O)c2cc3c(=O)n4ccccc4nc3n(CCc3ccccc3)c2=N)cc1,IC50,Proline--tRNA ligase,> 2.5 µM
same,IC50,[1],> 1 µM
same,IC50,[2],> 1 µM
same,IC50,[3],> 1 µM
same,IC50,[4],> 1 µM
same,IC50,Lysine--tRNA ligase,> 2.5 µM
same,IC50,[5],> 1 µM
O=C(Nc1ccc(-c2nc3cc4ccccc4cc3[nH]2)cc1)c1cccc(Br)c1,IC50,Proline--tRNA ligase,> 2.5 µM
same,IC50,[1],> 1 µM
same,IC50,[2],> 1 µM
same,IC50,[3],> 1 µM
same,IC50,[4],> 1 µM
same,IC50,Lysine--tRNA ligase,> 2.5 µM
same,IC50,[5],> 1 µM
COc1ccc(C(=O)C2CC2c2ccc(Cl)cc2)cc1 (stereo not drawn),IC50,Proline--tRNA ligase,> 2.5 µM
same,IC50,[1],> 1 µM
same,IC50,[2],> 1 µM
same,IC50,[3],> 1 µM
same,IC50,[4],> 1 µM
same,IC50,Lysine--tRNA ligase,> 2.5 µM
same,IC50,[5],> 1 µM
Fc1ccc2[nH]c3c(NCCCN4CCOCC4)ncnc3c2c1,IC50,Proline--tRNA ligase,> 2.5 µM
same,IC50,[1],> 1 µM
same,IC50,[2],> 1 µM
same,IC50,[3],> 1 µM
same,IC50,[4],> 1 µM
same,IC50,Lysine--tRNA ligase,> 2.5 µM
same,IC50,[5],> 1 µM
COc1ccc(CN2CCN(Cc3ccccc3)CC2)c(O)c1,IC50,Proline--tRNA ligase,> 2.5 µM
same,IC50,[1],> 1 µM
same,IC50,[2],> 1 µM
same,IC50,[3],> 1 µM
same,IC50,[4],> 1 µM
same,IC50,Lysine--tRNA ligase,> 2.5 µM
same,IC50,[5],> 1 µM
Oc1ccc2ccccc2c1CNc1nc2ccccc2[nH]1,IC50,Proline--tRNA ligase,> 2.5 µM
same,IC50,[1],> 1 µM
same,IC50,[2],> 1 µM
same,IC50,[3],> 1 µM
same,IC50,[4],> 1 µM
same,IC50,Lysine--tRNA ligase,> 2.5 µM
same,IC50,[5],> 1 µM
CCCCCC(=O)N1c2ccccc2N=C2CC(c3ccc(OC)c(OC)c3)CC(O)=C2C1c1ccc(C(F)(F)F)cc1 (stereo not drawn),IC50,Proline--tRNA ligase,> 2.5 µM
same,IC50,[1],> 1 µM
same,IC50,[2],> 1 µM
same,IC50,[3],> 1 µM
same,IC50,[4],> 1 µM
same,IC50,Lysine--tRNA ligase,> 2.5 µM
same,IC50,[5],> 1 µM
COc1ccc(NC(=O)C2c3ccccc3C(=O)N(CC(C)C)C2c2cccs2)cc1Cl (stereo not drawn),IC50,Proline--tRNA ligase,> 2.5 µM
same,IC50,[1],> 1 µM
same,IC50,[2],> 1 µM
same,IC50,[3],> 1 µM
same,IC50,[4],> 1 µM
same,IC50,Lysine--tRNA ligase,> 2.5 µM
same,IC50,[5],> 1 µM
COc1ccccc1CNC(=O)C1c2ccccc2C(=O)N(CC(C)C)C1c1cccs1 (stereo not drawn),IC50,Proline--tRNA ligase,> 2.5 µM
same,IC50,[1],> 1 µM
same,IC50,[2],> 1 µM
same,IC50,[3],> 1 µM
same,IC50,[4],> 1 µM
same,IC50,Lysine--tRNA ligase,> 2.5 µM
same,IC50,[5],> 1 µM
COc1ccc(C=C2SC(=N)N(c3ccccc3OC)C2=O)cc1,IC50,Proline--tRNA ligase,> 2.5 µM
same,IC50,[1],> 1 µM
same,IC50,[2],> 1 µM
same,IC50,[3],> 1 µM
same,IC50,[4],> 1 µM
same,IC50,Lysine--tRNA ligase,> 2.5 µM
same,IC50,[5],> 1 µM
Cc1cc(NC(=O)c2ccc(-c3ccccc3)cc2)no1,IC50,Proline--tRNA ligase,> 2.5 µM
same,IC50,[1],> 1 µM
same,IC50,[2],> 1 µM
same,IC50,[3],> 1 µM
same,IC50,[4],> 1 µM
same,IC50,Lysine--tRNA ligase,> 2.5 µM
same,IC50,[5],> 1 µM
CCOC(=O)c1c(C)n(-c2ccccc2)c2ccc(OC(=O)c3cc(OC)c(OC)c(OC)c3)cc12,IC50,Proline--tRNA ligase,> 2.5 µM
same,IC50,[1],> 1 µM
same,IC50,[2],> 1 µM
same,IC50,[3],> 1 µM
same,IC50,[4],> 1 µM
same,IC50,Lysine--tRNA ligase,> 2.5 µM
same,IC50,[5],> 1 µM
